Assay results published in ChEMBL document CHEMBL5291721, “A preclinical secondary pharmacology resource illuminates target-adverse drug reaction associations of marketed drugs” (Nat Commun, 2023).

What was measured:
Mu-type opioid receptor = Mu-type opioid receptor (Homo sapiens, UniProt P35372); test: biochemical; format: functional
[1] = molecular target: T1, Alpha-2B adrenergic receptor (Homo sapiens, UniProt P18089)
T1 sequence (P18089 whole entry): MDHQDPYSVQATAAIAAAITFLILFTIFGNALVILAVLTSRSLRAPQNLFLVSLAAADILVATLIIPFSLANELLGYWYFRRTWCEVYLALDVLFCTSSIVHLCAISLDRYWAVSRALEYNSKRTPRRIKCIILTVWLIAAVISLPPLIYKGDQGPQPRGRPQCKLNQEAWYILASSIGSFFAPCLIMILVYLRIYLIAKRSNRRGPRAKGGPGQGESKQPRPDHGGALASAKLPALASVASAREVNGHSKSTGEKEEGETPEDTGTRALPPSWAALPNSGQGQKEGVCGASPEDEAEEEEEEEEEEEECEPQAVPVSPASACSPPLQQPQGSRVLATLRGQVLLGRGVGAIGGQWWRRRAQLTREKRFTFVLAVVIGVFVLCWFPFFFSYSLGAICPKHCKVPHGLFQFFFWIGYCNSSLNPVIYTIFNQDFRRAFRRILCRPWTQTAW

[2] = molecular target: Gamma-aminobutyric acid receptor subunit alpha-1/alpha-2/beta-2/gamma-2 (Homo sapiens, UniProt P14867+P18507+P47869+P47870); format: functional, cell-based
[3] = molecular target: T2, Alpha-2A adrenergic receptor (Homo sapiens, UniProt P08913)
T2 sequence (P08913 whole entry): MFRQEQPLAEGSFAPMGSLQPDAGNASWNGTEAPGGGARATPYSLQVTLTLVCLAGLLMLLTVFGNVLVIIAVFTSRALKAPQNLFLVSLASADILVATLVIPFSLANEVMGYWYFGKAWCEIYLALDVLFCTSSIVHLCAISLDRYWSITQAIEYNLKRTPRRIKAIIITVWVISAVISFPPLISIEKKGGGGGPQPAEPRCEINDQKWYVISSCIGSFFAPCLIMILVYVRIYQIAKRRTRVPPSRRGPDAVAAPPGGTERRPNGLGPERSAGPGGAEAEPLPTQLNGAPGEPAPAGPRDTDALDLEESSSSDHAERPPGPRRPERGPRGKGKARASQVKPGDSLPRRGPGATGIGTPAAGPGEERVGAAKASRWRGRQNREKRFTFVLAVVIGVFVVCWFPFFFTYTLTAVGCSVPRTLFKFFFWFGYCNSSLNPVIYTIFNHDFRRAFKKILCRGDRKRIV

[4] = molecular target: Beta-3 adrenergic receptor (Homo sapiens, UniProt P13945)
[5] = molecular target: T3, Gastric inhibitory polypeptide receptor (Homo sapiens, UniProt P48546)
T3 sequence (P48546 whole entry): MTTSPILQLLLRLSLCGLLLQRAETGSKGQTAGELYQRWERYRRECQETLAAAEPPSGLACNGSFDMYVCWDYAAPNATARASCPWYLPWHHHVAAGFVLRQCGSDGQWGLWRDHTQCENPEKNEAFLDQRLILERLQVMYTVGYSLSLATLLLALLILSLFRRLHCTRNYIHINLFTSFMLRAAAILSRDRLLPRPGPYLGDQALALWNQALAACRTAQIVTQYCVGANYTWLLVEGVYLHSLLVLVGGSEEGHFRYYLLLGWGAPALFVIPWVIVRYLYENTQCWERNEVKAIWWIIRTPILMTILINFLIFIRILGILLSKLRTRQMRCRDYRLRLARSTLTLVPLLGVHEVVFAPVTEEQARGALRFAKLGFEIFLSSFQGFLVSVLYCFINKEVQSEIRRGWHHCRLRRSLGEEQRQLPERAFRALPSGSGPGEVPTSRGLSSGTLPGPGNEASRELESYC

[6] = molecular target: T4, 5-hydroxytryptamine receptor 1A (Homo sapiens, UniProt P08908)
T4 sequence (P08908 whole entry): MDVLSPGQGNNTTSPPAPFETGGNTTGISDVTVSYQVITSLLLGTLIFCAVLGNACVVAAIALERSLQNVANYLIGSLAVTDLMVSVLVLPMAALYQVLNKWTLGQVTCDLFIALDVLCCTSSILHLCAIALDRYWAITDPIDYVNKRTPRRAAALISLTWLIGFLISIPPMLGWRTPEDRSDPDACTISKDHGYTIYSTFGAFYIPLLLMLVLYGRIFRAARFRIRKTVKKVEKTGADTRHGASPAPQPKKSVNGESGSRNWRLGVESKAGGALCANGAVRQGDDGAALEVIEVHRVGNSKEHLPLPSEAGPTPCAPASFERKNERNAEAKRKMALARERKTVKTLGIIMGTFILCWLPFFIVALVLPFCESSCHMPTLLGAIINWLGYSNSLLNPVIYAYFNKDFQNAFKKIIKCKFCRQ

D(1A) dopamine receptor = D(1A) dopamine receptor (Homo sapiens, UniProt P21728)
Glucagon receptor = Glucagon receptor (Homo sapiens, UniProt P47871)
[7] = molecular target: T5, Peroxisome proliferator-activated receptor gamma (Homo sapiens, UniProt P37231); format: functional
T5 sequence (P37231 whole entry): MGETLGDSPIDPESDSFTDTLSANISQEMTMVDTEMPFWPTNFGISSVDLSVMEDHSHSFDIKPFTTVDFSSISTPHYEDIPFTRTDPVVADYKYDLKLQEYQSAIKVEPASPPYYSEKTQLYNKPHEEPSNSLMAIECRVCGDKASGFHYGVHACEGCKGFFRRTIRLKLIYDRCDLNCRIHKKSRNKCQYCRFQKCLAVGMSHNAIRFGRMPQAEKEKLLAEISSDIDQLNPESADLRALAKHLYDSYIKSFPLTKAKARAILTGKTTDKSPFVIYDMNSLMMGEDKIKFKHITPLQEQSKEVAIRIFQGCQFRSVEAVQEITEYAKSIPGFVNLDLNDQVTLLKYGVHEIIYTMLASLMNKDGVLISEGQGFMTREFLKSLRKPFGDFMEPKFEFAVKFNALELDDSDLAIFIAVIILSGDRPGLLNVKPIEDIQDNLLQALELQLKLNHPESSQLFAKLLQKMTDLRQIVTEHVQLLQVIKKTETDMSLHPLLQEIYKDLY
Also: assay procedure not described here.

Chain of D(1A) dopamine receptor (P21728 whole entry): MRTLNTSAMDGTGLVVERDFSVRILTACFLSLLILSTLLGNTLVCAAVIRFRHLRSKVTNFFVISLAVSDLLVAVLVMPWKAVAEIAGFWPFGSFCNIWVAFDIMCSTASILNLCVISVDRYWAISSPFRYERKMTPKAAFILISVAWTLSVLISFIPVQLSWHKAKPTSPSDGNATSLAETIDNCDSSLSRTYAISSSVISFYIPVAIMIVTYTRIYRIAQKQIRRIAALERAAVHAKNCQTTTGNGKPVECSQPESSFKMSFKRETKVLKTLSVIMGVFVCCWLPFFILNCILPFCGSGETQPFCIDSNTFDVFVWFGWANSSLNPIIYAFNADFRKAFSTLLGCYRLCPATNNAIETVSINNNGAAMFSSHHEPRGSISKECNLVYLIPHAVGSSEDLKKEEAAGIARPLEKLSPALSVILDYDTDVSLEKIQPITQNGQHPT
Chain of Mu-type opioid receptor (P35372 whole entry): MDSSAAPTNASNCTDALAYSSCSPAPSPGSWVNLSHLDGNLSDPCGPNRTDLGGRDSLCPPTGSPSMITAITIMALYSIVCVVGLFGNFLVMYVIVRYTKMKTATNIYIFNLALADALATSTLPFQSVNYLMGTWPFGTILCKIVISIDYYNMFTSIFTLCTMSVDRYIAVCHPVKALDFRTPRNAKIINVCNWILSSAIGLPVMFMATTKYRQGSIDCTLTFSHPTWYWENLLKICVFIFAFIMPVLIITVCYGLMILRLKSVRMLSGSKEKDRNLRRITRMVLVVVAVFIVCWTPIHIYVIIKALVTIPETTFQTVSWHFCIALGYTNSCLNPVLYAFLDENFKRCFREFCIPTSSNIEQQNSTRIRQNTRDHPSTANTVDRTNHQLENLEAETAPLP
Chain of Glucagon receptor (P47871 whole entry): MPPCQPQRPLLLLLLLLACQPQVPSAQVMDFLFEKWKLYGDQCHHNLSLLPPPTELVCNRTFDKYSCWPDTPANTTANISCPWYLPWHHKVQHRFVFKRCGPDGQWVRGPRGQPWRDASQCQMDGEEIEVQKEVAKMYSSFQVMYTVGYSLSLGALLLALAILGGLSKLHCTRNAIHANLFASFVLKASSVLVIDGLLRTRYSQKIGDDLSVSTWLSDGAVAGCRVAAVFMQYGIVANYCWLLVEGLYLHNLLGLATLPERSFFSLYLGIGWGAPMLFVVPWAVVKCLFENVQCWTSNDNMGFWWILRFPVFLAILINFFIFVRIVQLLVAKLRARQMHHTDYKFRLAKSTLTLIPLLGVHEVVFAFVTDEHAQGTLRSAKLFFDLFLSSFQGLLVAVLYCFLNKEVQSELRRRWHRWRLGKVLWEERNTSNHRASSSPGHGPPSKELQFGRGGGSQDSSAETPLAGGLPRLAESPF
Chain of Beta-3 adrenergic receptor (P13945 whole entry): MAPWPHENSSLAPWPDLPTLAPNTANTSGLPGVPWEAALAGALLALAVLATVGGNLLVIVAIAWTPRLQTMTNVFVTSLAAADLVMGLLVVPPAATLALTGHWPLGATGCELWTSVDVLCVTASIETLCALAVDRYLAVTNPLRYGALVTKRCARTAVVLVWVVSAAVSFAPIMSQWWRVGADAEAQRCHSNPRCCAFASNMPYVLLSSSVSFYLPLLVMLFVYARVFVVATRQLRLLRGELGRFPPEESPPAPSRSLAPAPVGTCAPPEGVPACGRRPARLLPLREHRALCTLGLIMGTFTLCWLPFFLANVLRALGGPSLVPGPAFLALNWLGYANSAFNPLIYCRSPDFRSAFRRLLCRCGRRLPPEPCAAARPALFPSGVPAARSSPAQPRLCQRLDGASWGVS
Chain of Gamma-aminobutyric acid receptor subunit alpha-1/alpha-2/beta-2/gamma-2 (P14867 whole entry): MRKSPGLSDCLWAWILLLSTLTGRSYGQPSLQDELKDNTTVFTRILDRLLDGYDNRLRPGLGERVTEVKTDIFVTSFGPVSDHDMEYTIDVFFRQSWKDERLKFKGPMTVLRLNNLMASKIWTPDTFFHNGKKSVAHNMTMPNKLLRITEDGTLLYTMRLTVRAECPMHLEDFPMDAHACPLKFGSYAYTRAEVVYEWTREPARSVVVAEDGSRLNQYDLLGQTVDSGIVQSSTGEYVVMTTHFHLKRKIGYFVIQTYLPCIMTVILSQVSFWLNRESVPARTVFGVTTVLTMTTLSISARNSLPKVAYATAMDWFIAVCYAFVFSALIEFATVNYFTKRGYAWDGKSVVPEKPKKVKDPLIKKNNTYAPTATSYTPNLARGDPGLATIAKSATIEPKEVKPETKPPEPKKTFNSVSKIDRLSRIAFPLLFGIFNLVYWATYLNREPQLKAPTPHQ
Chain of Gamma-aminobutyric acid receptor subunit alpha-1/alpha-2/beta-2/gamma-2 (P47870 whole entry): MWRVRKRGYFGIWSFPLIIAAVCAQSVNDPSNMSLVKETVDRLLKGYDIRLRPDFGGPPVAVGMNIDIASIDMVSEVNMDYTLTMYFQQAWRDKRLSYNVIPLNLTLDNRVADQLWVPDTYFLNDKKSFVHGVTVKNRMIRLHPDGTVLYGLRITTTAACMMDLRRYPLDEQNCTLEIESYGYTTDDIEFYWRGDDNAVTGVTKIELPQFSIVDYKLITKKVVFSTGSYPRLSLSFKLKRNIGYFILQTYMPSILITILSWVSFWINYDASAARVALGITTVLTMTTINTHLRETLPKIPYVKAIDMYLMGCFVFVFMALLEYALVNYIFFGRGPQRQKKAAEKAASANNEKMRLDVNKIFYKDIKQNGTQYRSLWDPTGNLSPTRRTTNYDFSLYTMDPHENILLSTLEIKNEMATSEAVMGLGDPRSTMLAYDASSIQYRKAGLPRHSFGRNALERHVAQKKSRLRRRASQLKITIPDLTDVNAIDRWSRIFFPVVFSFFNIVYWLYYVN
Chain of Gamma-aminobutyric acid receptor subunit alpha-1/alpha-2/beta-2/gamma-2 (P18507 whole entry): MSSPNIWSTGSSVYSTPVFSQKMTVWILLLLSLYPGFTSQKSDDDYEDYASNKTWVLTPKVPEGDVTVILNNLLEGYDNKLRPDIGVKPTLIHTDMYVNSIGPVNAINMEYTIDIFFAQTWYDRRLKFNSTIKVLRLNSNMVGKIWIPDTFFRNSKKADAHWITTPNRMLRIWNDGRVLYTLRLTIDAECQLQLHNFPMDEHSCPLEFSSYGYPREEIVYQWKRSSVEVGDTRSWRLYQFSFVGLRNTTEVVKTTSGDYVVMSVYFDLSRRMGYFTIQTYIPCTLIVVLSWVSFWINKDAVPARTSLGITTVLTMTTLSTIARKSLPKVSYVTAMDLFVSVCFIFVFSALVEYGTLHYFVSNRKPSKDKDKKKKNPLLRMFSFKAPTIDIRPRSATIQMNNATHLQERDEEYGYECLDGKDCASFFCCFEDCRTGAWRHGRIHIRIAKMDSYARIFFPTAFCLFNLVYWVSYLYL
Chain of Gamma-aminobutyric acid receptor subunit alpha-1/alpha-2/beta-2/gamma-2 (P47869 whole entry): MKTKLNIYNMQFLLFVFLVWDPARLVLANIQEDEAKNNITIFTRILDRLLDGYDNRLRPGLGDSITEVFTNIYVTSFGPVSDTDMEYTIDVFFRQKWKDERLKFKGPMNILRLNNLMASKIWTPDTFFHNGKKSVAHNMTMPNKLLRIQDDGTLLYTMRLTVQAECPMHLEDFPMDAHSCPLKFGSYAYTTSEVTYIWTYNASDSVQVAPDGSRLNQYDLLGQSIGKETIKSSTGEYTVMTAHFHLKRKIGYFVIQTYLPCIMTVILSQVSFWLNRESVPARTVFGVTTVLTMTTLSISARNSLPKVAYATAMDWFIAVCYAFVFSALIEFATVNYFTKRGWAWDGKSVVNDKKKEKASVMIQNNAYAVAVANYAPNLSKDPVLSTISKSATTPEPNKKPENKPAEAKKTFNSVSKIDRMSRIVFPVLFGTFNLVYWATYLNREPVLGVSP

| Compound | AC50 (Mu-type opioid receptor) | AC50 [1] | AC50 [2] | AC50 [3] | AC50 [4] | AC50 [5] | AC50 [6] | AC50 (D(1A) dopamine receptor) | AC50 (Glucagon receptor) | AC50 [7] |
| --- | --- | --- | --- | --- | --- | --- | --- | --- | --- | --- |
| CN(CC1(C)CCCO1)S(=O)(=O)c1ccc(Cl)c(S(N)(=O)=O)c1 (configuration not stated) [MEFRUSIDE] | > 30 µM | > 30 µM | > 30 µM |  |  |  |  |  |  |  |
| CO[C@H]1/C=C/O[C@@]2(C)Oc3c(C)c(O)c4c(O)c(c(/C=N/N5CCN(C)CC5)c(O)c4c3C2=O)NC(=O)/C(C)=C\C=C\[C@H](C)[C@H](O)[C@@H](C)[C@@H](O)[C@@H](C)[C@H](OC(C)=O)[C@@H]1C [RIFAMPIN] | > 30 µM |  |  | > 10 µM | 32.6 µM | > 30 µM | > 10 µM | > 10 µM | > 30 µM |  |
| CC(=O)O[C@]1(C(C)=O)CC[C@H]2[C@@H]3C=C(C)C4=CC(=O)CC[C@@H]4[C@H]3CC[C@@]21C [NOMEGESTROL ACETATE] | > 30 µM | > 30 µM |  |  |  |  |  |  |  |  |
| O=C1C(CC[S+]([O-])c2ccccc2)C(=O)N(c2ccccc2)N1c1ccccc1 (configuration not stated) [SULFINPYRAZONE] | > 30 µM |  |  |  |  |  |  |  |  |  |
| CC(C)Cc1ccc(C(C)C(=O)O)cc1 (configuration not stated) [IBUPROFEN] |  |  |  | > 10 µM | 7.12 µM | > 30 µM | > 10 µM | > 10 µM | > 30 µM |  |
| COc1cc2nc(N3CCN(C(=O)C4CCCO4)CC3)nc(N)c2cc1OC (configuration not stated) [TERAZOSIN] | > 30 µM |  |  | 7.27 µM | > 30 µM | > 30 µM | > 10 µM | > 10 µM | > 30 µM |  |
| CC(C)N(CCC(C(N)=O)(c1ccccc1)c1ccccn1)C(C)C (configuration not stated) [DISOPYRAMIDE] |  | > 10 µM |  |  | 8.37 µM | > 30 µM | > 10 µM |  | > 30 µM |  |
| CN(C)CCC[C@@]1(c2ccc(F)cc2)OCc2cc(C#N)ccc21 [ESCITALOPRAM] |  |  | > 30 µM |  |  |  |  |  |  |  |
| Nc1ccc(S(=O)(=O)Nc2nccs2)cc1 [SULFATHIAZOLE] |  |  |  | > 10 µM | > 30 µM | > 30 µM | > 10 µM | > 10 µM | > 30 µM |  |
| C[C@H](CCC(=O)O)[C@H]1CC[C@H]2[C@@H]3[C@@H](O)C[C@@H]4C[C@H](O)CC[C@]4(C)[C@H]3CC[C@]12C [URSODIOL] |  | > 30 µM | > 30 µM |  |  |  |  |  |  | > 30 µM |
| CN1C[C@H](C(=O)N[C@]2(C)O[C@@]3(O)[C@@H]4CCCN4C(=O)[C@H](Cc4ccccc4)N3C2=O)C=C2c3cccc4[nH]cc(c34)C[C@H]21 [ERGOTAMINE] |  |  | > 30 µM |  |  |  |  |  |  | > 30 µM |
| C#C[C@]1(O)CC[C@H]2[C@@H]3CCC4=CC(=O)CC[C@@H]4[C@H]3C(=C)C[C@@]21CC [ETONOGESTREL] | > 30 µM | > 30 µM |  |  |  |  |  |  |  |  |
| CN(C)CCc1c[nH]c2ccc(Cn3cncn3)cc12 [RIZATRIPTAN] | > 30 µM | > 30 µM | > 30 µM | > 10 µM | > 30 µM | > 30 µM |  | > 10 µM | > 30 µM |  |
| COc1ccccc1Oc1c(NS(=O)(=O)c2ccc(C(C)(C)C)cc2)nc(-c2ncccn2)nc1OCCO [BOSENTAN] |  | > 10 µM |  | > 10 µM | > 30 µM | > 30 µM | > 10 µM | > 10 µM | > 30 µM |  |
| C[C@]12C=CC(=O)N[C@@H]1CC[C@@H]1[C@@H]2CC[C@]2(C)[C@@H](C(=O)Nc3cc(C(F)(F)F)ccc3C(F)(F)F)CC[C@@H]12 [DUTASTERIDE] | > 30 µM | > 10 µM |  |  |  |  |  |  |  |  |
